One series concerns CYP2C9 and CYP3A4. The arrangement: method as in He and Edeki [2004]. As to conditions: inhibitory effects appear negligible; ref He and Edeki [2004]; cited from earlier work.
The target in series [1] is T1, recombinant human CYP2C8 (RHCYP2C8) (Homo sapiens, UniProt P10632).
T1 sequence (P10632 1-490): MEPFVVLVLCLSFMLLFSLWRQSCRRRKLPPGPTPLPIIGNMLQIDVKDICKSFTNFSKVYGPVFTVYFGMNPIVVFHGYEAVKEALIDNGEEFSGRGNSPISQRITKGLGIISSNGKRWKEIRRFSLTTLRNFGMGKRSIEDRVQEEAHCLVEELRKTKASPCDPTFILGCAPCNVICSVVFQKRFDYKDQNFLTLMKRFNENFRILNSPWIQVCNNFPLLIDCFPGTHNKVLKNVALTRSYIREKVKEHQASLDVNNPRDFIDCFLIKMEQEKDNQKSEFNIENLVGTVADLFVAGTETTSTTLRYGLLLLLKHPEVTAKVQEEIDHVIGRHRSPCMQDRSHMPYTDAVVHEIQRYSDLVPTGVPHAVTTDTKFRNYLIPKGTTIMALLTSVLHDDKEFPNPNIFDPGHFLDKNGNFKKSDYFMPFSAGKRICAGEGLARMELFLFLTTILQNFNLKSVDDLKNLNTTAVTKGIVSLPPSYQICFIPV
Put plainly: Inhibition of RHCYP2C8 yeast microsomes, probe substrate amodiaquine. The conditions noted are these: for inhibitor intensity classification for CYP2C8: class by IC50, general rules (Testa 2007). On the procedure: (§1) RHCYP2C8 and RHCYP2C9 yeast microsomes were extracted using the glass bead crushing method and differential centrifugation, with grinding 15 times by 0.5 g glass beads and centrifugation at 9,000 g for 20 min at 4 °C. The supernatant was then centrifuged at 100,000 g at 4 °C (BECKMAN COULTER Optima™ L-80 XP Ultracentrifuge) for 1 h, and the precipitation was RHCYP2C8 or RHCYP2C9 yeast microsome. Reconstituted with potassium phosphate buffer (pH 7.4), the microsome solution was collected and stored at −80 °C for subsequent examination. Protein concentrations of microsomes were determined using the Lowry method.
Amodiaquine and diclofenac are typical CYP2C8 and CYP2C9 probe substrates, respectively. […] The 0.4 mL incubation mixtures contained inhibitors (0–500 μmol/L), potassium phosphate buffer (pH 7.4) in common, and RHCYP2C8 (12.4 mg/mL) with amodiaquine or RHCYP2C9 (4.6 mg/mL) with diclofenac. […] The reactions were initiated by the addition of NADPH with pre-incubation 10 min in advance and carried out for 40 min.
(§2) The CYP2C8 sample treatment process was that incubation was terminated by adding 200 μL of methanol. Samples were centrifuged at 12,000 rpm for 10 min, and the supernatant was subjected to HPLC. The CYP2C9 sample treatment process was that each sample (100 μL) was spiked with 10 μL of carbamazepine (30 μg/mL). The mixture was then extracted with 500 μL ethyl acetate by vortexing for 3 min and centrifuged at 12,000 rpm for 10 min. […] The residue was dissolved in 100 μL methanol for HPLC analysis.

Series [2] has as its target recombinant human CYP2C9 (RHCYP2C9) (Homo sapiens, UniProt P11712). Put plainly: Inhibition of RHCYP2C9 yeast microsomes, probe substrate diclofenac. The conditions noted are these: for inhibitor intensity classification for CYP2C9: class by IC50, general rules (Testa 2007). On the procedure: as §1
Amodiaquine and diclofenac are typical CYP2C8 and CYP2C9 probe substrates, respectively. […] The reactions were initiated by the addition of NADPH with pre-incubation 10 min in advance and carried out for 40 min.
as §2

For the next series, the system named is CYP2C8. The arrangement: method as in Unger and Frank [2004]. As to conditions: ref Unger and Frank [2004]; read-out: IC50 for CYP2C8 (previous finding); cited from earlier work.
Series [3] is described as follows: Pharmacokinetics of ROS after 10-day multiple-dose GLT in rats. It counts as in vivo, Sprague-Dawley rats. The conditions noted are these: ROS 10 mg/kg oral; for AUC(0-t) / Cmax / MRT / Tmax / half-life: male, Sprague-Dawley, rat, plasma, po, 10 mg/kg.
Method: (§3) All the experimental procedures involving animals were approved by the Ethics Committee of the China Pharmaceutical University (Nanjing, Jiangsu, China) (No.2021-09-020). Male Sprague-Dawley rats weighing 180–200 g were supplied by Zhejiang Experimental Animal Centre (Hangzhou, Zhejiang, China).
(§4) For the pharmacokinetic study in vivo, 36 rats were equally randomised to 6 groups, including control group (ROS 10 mg/kg + vehicle) group (A, D), ROS (10 mg/kg) + GLT (100 mg/kg) group (B, E), and ROS (10 mg/kg) + GLT (200 mg/kg) group (C, F). […] The ROS and GLT fraction powders were all homogenised in the vehicle (0.5% CMC-Na solution containing 1% Tween 80). For the single dose, Group A, B, and C were treated with vehicle (5 mL/kg), normal-dose GLT suspension (100 mg/kg), and high-dose GLT suspension (200 mg/kg) by oral gavage, respectively. Thirty-min later, ROS was orally administered to rats in each group. For multiple doses, Group D, E, and F were pre-treated with a vehicle, normal-dose GLT suspension, and high-dose GLT suspension, respectively, by oral gavage for 10 consecutive days. On the 11th day, half an hour after GLT administration, ROS was orally administered to rats in each group.
(§5) After centrifuging at 12,000 rpm for 5 min, the plasma samples (100 μL) were then spiked with 10 μL of the testosterone (100 μg/mL) and extracted with 500 μL of ethyl acetate by vortexing for 3 min. […] The residue was dissolved in 50 μL methanol for HPLC analysis.
(§6) The mobile phase was composed of acetonitrile:0.02 mol/L ammonium acetate (50:50, v/v, adjusted pH to 6.0 with acetic acid) for ROS or methanol:0.1 mol/L ammonium acetate (9:91, v/v, adjusted pH to 3.0 with acetic acid) for DEAQ or 0.1%TFA water: 0.1%TFA acetonitrile (49:51, v/v) for 4-OH DCF with the flow rate at 1.0 mL/min.
(§7) All raw data were analysed on the Shimadzu LabSolution software. The pharmacokinetic parameters were calculated using the Phoenix WinNonlin 6.4 software (Certara Inc., Princeton, NJ, USA). The data in this study were presented as mean ± SD for the individual groups. An unpaired Student’s t-test was used to determine any significant differences. A p-value less than 0.05 was considered statistically significant (*p < 0.05; **p < 0.01).
Series [4] is described as follows: Pharmacokinetics of ROS with single-dose GLT in rats. The conditions noted are these: for CL/F / AUC(0-t) / Cmax / MRT / Tmax: ROS 10 mg/kg oral; for AUC(0-t) / Cmax / MRT / Tmax / half-life: male, Sprague-Dawley, rat, plasma, po, 10 mg/kg; for AUC(0-t): AUC0-t; for half-life: t1/2, ROS 10 mg/kg oral; for extension of MRT vs control: ROS 10 mg/kg.
Method: as §3, §4, §5, §6, §7
Setting [5] is: multiple-dose GLT 100 mg/kg for 10 days.
The mark [6] stands for this setting: multiple-dose GLT 200 mg/kg for 10 days.

Sequence of recombinant human CYP2C9 (RHCYP2C9) (P11712 whole entry): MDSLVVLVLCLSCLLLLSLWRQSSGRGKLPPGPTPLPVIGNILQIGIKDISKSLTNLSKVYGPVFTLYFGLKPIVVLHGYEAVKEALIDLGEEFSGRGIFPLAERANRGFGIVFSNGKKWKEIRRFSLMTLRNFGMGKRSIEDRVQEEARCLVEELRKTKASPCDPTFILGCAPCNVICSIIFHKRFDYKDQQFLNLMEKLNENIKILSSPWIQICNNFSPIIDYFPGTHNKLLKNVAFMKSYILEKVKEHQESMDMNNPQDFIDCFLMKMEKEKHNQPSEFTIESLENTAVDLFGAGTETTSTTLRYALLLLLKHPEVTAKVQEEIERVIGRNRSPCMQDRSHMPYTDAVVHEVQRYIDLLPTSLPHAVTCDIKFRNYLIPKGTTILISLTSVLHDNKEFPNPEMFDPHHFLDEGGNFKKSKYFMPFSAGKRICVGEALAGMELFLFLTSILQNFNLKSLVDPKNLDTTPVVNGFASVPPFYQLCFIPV

For ginkgolide B, the “concentrations at which effects are pronounced” value in the series on CYP2C9 and CYP3A4 is given as “greater than 100 μmol/L”.

For `O=c1c(O)c(-c2ccc(O)cc2)oc2cc(O)cc(O)c12` [kaempferol], in series [1], the IC50 worked out at 7.67 µM; the “inhibitor intensity classification for CYP2C8” value was “moderate (moderate inhibitors are between 1 and 10 μmol/L)”. Besides, in series [2], the IC50 is 7.57 µM; the “inhibitor intensity classification for CYP2C9” value is “moderate (moderate inhibitors are between 1 and 10 μmol/L)”.

For `O=c1c(O)c(-c2ccc(O)c(O)c2)oc2cc(O)cc(O)c12` [quercetin], in the series on CYP2C8, the IC50 was […]. For the same compound, the “inhibitor intensity classification for CYP2C8” value in series [1] is “moderate (moderate inhibitors are between 1 and 10 μmol/L)”. In addition, the “inhibitor intensity classification for CYP2C9” value in series [2] was “weak (weak inhibitors are over 10 μmol/L)”.

Take `CN(CCOc1ccc(CC2SC(=O)NC2=O)cc1)c1ccccn1` (centres unmarked) [ROS, Rosiglitazone]: in series [3] (control (vehicle 10 days)), the CL/F was 13.92 ± 3.04 mL/h, the AUC(0-t) amounted to 140 ± 45.5 µg·h/mL, the Cmax was 38700 ± 9730 ng/mL and the MRT was determined as 3.27 ± 0.65 h. Moreover, in series [3] (control (vehicle 10 days)), the Tmax amounted to 0.79 ± 0.4 h and the half-life is 2.75 ± 0.7 h. In series [3] (setting [5]), this compound yielded a CL/F of 25.54 ± 9.02 mL/h, an AUC(0-t) of 84.6 ± 39.9 µg·h/mL, a Cmax of 28500 ± 5560 ng/mL and an MRT of 2.95 ± 1.13 h. In series [3] (setting [5]), the Tmax is 0.54 ± 0.25 h and the half-life is 1.99 ± 0.44 h. In series [3] (setting [6]), this compound displayed a CL/F of 30.00 ± 8.52 mL/h, an AUC(0-t) of 66.6 ± 15.9 µg·h/mL, a Cmax of 28400 ± 4640 ng/mL and an MRT of 2.13 ± 0.28 h. Moreover, in series [3] (setting [6]), the Tmax turned out to be 0.37 ± 0.13 h and the half-life was 1.68 ± 0.35 h. Further, in series [4] (control (vehicle), single dose), the CL/F is 16.46 ± 1.91 mL/h, the AUC(0-t) amounted to 117 ± 12.2 µg·h/mL, the highest level (Cmax) was 29100 ± 5980 ng/mL and the MRT was 3.02 ± 0.28 h. Moreover, in series [4] (control (vehicle), single dose), the Tmax stood at 0.9 ± 0.34 h and the half-life is 2.14 ± 0.38 h. Further, in series [4] (single-dose GLT 100 mg/kg), the CL/F stood at 14.58 ± 2.12 mL/h, the area under the curve AUC(0-t) is 130 ± 24.3 µg·h/mL, the Cmax worked out at 28800 ± 5860 ng/mL and the MRT was determined as 3.66 ± 0.63 h. Further, in series [4] (single-dose GLT 100 mg/kg), the time to peak (Tmax) was found to be 1.01 ± 0.65 h, the half-life is 2.79 ± 0.37 h and the “extension of MRT vs control” value is 21%. Also, in series [4] (single-dose GLT 200 mg/kg), the CL/F worked out at 13.97 ± 3.43 mL/h, the AUC(0-t) was 139 ± 40.6 µg·h/mL, the concentration peaked (Cmax) at 26000 ± 6990 ng/mL and the MRT came to 4.24 ± 1.04 h. In series [4] (single-dose GLT 200 mg/kg), the Tmax was found to be 0.8 ± 0.26 h, the half-life was 3.26 ± 1.08 h and the “extension of MRT vs control” value worked out at 40%.

Consider `COc1cc(-c2oc3cc(O)cc(O)c3c(=O)c2O)ccc1O` [isorhamnetin], for which, in series [1], the IC50 came out at 11.9 µM and the “inhibitor intensity classification for CYP2C8” value is “weak (weak inhibitors are over 10 μmol/L)”. In addition, in series [2], the IC50 turned out to be 4.59 µM; the “inhibitor intensity classification for CYP2C9” value is “moderate (moderate inhibitors are between 1 and 10 μmol/L)”.
